For 4 molecules, Kd and binding results are on record in article PMC6208384 (2018).

The subject of data set [1] is Fab BL3-6, PDB:6DB9_2+PDB:6DB9_3. Description: filter binding. Particulars: 5 mM Mg2+; no dye mentioned; Filter binding: 50 mM Tris pH 7.4, 150 mM NaCl, 5 mM MgCl2, 0.1 U/uL RNase inhibitor, 2 nM-2 uM Fab, 30 min; RNA refolded at 50 C then RT (binding temperature …).
Data set [2] has as its system DIR2s_GAAACAC (RNA, aptamer) GGAUGCGCCUUGAAAAGCCUGCGAAACACGCAGCUGGUGAAUGACAGCUAUGGCGCAUCC
Description: fluorescence competition. The note with it: 150 mM NaCl, 5 mM MgCl2; 50 mM Tris pH 7.4, 20 °C; OTB-SO3 displaced, 500 nM RNA, 600 nM OTB-SO3.

For data set [3], the system named is A40U (RNA, aptamer) GGAUGCGCCUUGAAAAGCCUGCGAAACACGCAGCUGGUGUAUGACAGCUAUGGCGCAUCC
Put plainly: fluorescence activation. The note with it: 150 mM NaCl, 5 mM MgCl2; 50 mM Tris pH 7.4, 20 °C; RNA 3 µM, dye 6 µM; fluorescence as WT.

For data set [4], the system named is DIR2s_GAAACAC (RNA, aptamer) GGAUGCGCCUUGAAAAGCCUGCGAAACACGCAGCUGGUGAAUGACAGCUAUGGCGCAUCC
Description: fluorescence titration. Particulars: 150 mM NaCl, 5 mM MgCl2; 50 mM Tris pH 7.4, 20 °C; construct assigned from review file b5063.

Data set [5] concerns A15C; A40, A41 to G (RNA, aptamer) GGAUGCGCCUUGAACAGCCUGCGAAACACGCAGCUGGUGGGUGACAGCUAUGGCGCAUCC
Put plainly: fluorescence activation. The note with it: 150 mM NaCl, 5 mM MgCl2; 50 mM Tris pH 7.4, 20 °C; RNA 3 µM, dye 6 µM; fluorescence abolished.

For data set [6], the system named is 0 bp P1 (RNA, aptamer) GGAAAAGCCCGCGAAACACGCAGCUGGUGAAUGACAGCU
Description: fluorescence activation. Particulars: 150 mM NaCl, 5 mM MgCl2; 50 mM Tris pH 7.4, 20 °C; RNA 3 µM, dye 6 µM; ca. 80% of WT fluorescence.

For data set [7], the system named is DIR2s_WT (UUCG) (RNA, aptamer) GGAUGCGCCUUGAAAAGCCUGCUUCGGCAGCUGGUGAAUGACAGCUAUGGCGCAUCC
Description: fluorescence activation. Particulars: 150 mM NaCl, 5 mM MgCl2; 50 mM Tris pH 7.4, 20 °C.

For data set [8], the system named is G39, A40, A41 to U (RNA, aptamer) GGAUGCGCCUUGAAAAGCCUGCGAAACACGCAGCUGGUUUUUGACAGCUAUGGCGCAUCC
Description: fluorescence activation. Particulars: 150 mM NaCl, 5 mM MgCl2; 50 mM Tris pH 7.4, 20 °C; RNA 3 µM, dye 6 µM; fluorescence abolished.

The subject of data set [9] is Abasic A40 (RNA, aptamer, abasic at 40) GGAUGCGCCUUGAAAAGCCUGCGAAACACGCAGCUGGUGNAUGACAGCUAUGGCGCAUCC
Description: fluorescence activation. The note with it: 150 mM NaCl, 5 mM MgCl2; 50 mM Tris pH 7.4, 20 °C; RNA 3 µM, dye 6 µM; fluorescence diminished.

Data set [10] concerns Abasic G39 (RNA, aptamer, abasic at 39) GGAUGCGCCUUGAAAAGCCUGCGAAACACGCAGCUGGUNAAUGACAGCUAUGGCGCAUCC
Description: fluorescence activation. The note with it: 150 mM NaCl, 5 mM MgCl2; 50 mM Tris pH 7.4, 20 °C; RNA 3 µM, dye 6 µM; fluorescence diminished.

Data set [11] has as its system 5 bp P1 (RNA, aptamer) GGCCUUGAAAAGCCUGCGAAACACGCAGCUGGUGAAUGACAGCUAUGGCC
Description: fluorescence activation. Particulars: 150 mM NaCl, 5 mM MgCl2; 50 mM Tris pH 7.4, 20 °C; RNA 3 µM, dye 6 µM; fluorescence as WT.

The test system of data set [12] is DIR2s_GAAACAC (RNA, aptamer) GGAUGCGCCUUGAAAAGCCUGCGAAACACGCAGCUGGUGAAUGACAGCUAUGGCGCAUCC
Put plainly: X-ray crystal structure, 1.86 Å. The note with it: 10 mM MgCl2, 1.8 M Li2SO4; 50 mM MES pH 5.6; ternary complex with Fab BL3-6.

In data set [13] the test system is A41U (RNA, aptamer) GGAUGCGCCUUGAAAAGCCUGCGAAACACGCAGCUGGUGAUUGACAGCUAUGGCGCAUCC
Put plainly: fluorescence activation. Particulars: 150 mM NaCl, 5 mM MgCl2; 50 mM Tris pH 7.4, 20 °C; RNA 3 µM, dye 6 µM; fluorescence as WT.

The test system of data set [14] is DIR2s_GAAACAC (RNA, aptamer) GGAUGCGCCUUGAAAAGCCUGCGAAACACGCAGCUGGUGAAUGACAGCUAUGGCGCAUCC
Description: fluorescence activation. The note with it: 150 mM NaCl, 5 mM MgCl2; 50 mM Tris pH 7.4, 20 °C; loop version (UUCG or GAAACAC) not stated.

pKd: −log10 of the molar value.

In turn, “GGAUGCGCCUUGAAAAGCCUGCGAAACACGCAGCUGGUGAAUGACAGCUAUGGCGCAUCC [DIR2s_GAAACAC RNA]” had a pKd in data set [1] of 7.17.
With `CN1C(=CC=Cc2cc[n+](CCCS(=O)(=O)[O-])c3ccccc23)C(C)(C)c2ccccc21`, the binding entry in [2] is “yes”.
Take `CN1/C(=C/c2sc3ccccc3[n+]2CCCS(=O)(=O)[O-])Oc2ccccc21`: the binding entry is “yes” in data set [3]; “no” in data set [5]; “yes” in data set [6]; “yes” in data set [7]; “no” in [8]; “weak” in [9]. The binding entry in [10] is listed as “weak”; in data set [11] it was “yes”; in data set [12] it was “yes”; in data set [13], “yes”. The same molecule displayed a Kd in data set [4] of 708 ± 16 nM.
`CN1C=CC(=Cc2sc3ccccc3[n+]2CC(=O)NCCOCCOCCOCCNC(=O)CCCC[C@@H]2SC[C@@H]3NC(=O)N[C@@H]32)c2ccccc21`: the binding result in [14] was “yes”.
